US7501542B2, “Highly-packed polycationic ammonium, sulfonium and phosphonium lipids” (Invitrogen Corporation, priority 1993, dated 2009)

What was measured:
[1] = tested on: primary human fibroblasts; experiment: Transfection of primary human fibroblasts with pCMV β-gal DNA, in situ β-galactosidase staining; assay type: cell-based
Procedure: All cell lines were obtained from American Type Culture Collection (Rockville, Md.). Standard tissue culture methods were employed. […] Human fibroblasts were isolated from neonatal foreskin tissue and prepared as follows. Rinsed, fresh tissue was exposed to 25 units/ml dispase (Collaborative Research, Bedford, Mass.) overnight at 4° C., separated into epidermis and dermis, and the minced dermis was digested 10 min at 37° C. in 0.25% (v/v) trypsin, 1 mM EDTA. The reaction was stopped by a rinse and centrifugation in DMEM with 10% (v/v) FBS, in which the cells were also cultured. All cultures were incubated at 37° C., 5% CO2. Media for all cultures routinely included 100 units/ml penicillin and 100 μg/ml streptomycin.
For transfection of CHO-K1, NIH-3T3, and human fibroblast cells in 24-well plates, lipid and DNA (PCMV β-gal) were diluted separately into 25 μl aliquots of Opti-MEM I Reduced Serum Medium (GIBCO BRL; serum-free). […]
Cells were rinsed with PBS, fixed for 5 minutes in 2% (v/v) formaldehyde, 0.2% glutaraldehyde in PBS, rinsed twice with PBS, and stained 2 hr to overnight with 0.1% β-gal, 5 mM potassium ferrocyanide, 5 mM potassium ferrocyanide, 2 mM MgCl2 in PBS. […] Transfection efficiency is evaluated by counting or estimating the number of β-gal positive cells (blue-stained cells). […]

NIH-3T3 cells = experiment: Transfection of NIH-3T3 cells with pCMV β-gal DNA, in situ β-galactosidase staining; assay type: cell-based
Procedure: (§1) All cell lines were obtained from American Type Culture Collection (Rockville, Md.). Standard tissue culture methods were employed. Chinese hamster ovary (CHO-K1) cells were cultured in EMEM (GIBCO BRL) containing 2 mM proline and 5% (v/v) fetal bovine serum (FBS). NIH 3T3 cells were cultured in Dulbecco's-modified Eagle's medium (DMEM) containing 10% (v/v) calf serum (CS). Jurkat cells were cultured in RPMI 1640 (GIBCO BRL) containing 10% (v/v) FBS. Human fibroblasts were isolated from neonatal foreskin tissue and prepared as follows. Rinsed, fresh tissue was exposed to 25 units/ml dispase (Collaborative Research, Bedford, Mass.) overnight at 4° C., separated into epidermis and dermis, and the minced dermis was digested 10 min at 37° C. in 0.25% (v/v) trypsin, 1 mM EDTA. The reaction was stopped by a rinse and centrifugation in DMEM with 10% (v/v) FBS, in which the cells were also cultured. All cultures were incubated at 37° C., 5% CO2. Media for all cultures routinely included 100 units/ml penicillin and 100 μg/ml streptomycin. […]
(§2) Cell lysates were assayed for β-galactosidase activity as described by Sanes et al. (1986) EMBO J. 5:3133. […] Transfection efficiency is evaluated by counting or estimating the number of β-gal positive cells (blue-stained cells). […]

CHO-K1 cells = experiment: Transfection of CHO-K1 cells with pCMV β-gal DNA, in situ β-galactosidase staining; assay type: cell-based, Chinese hamster; conditions: CHO-K1 cells (Table 3)
Procedure: as §1, §2

Jurkat cells = experiment: Transfection of Jurkat cells with pCMVCAT DNA, CAT activity of cell lysates; assay type: cell-based
Procedure: All cell lines were obtained from American Type Culture Collection (Rockville, Md.). Standard tissue culture methods were employed. Chinese hamster ovary (CHO-K1) cells were cultured in EMEM (GIBCO BRL) containing 2 mM proline and 5% (v/v) fetal bovine serum (FBS). NIH 3T3 cells were cultured in Dulbecco's-modified Eagle's medium (DMEM) containing 10% (v/v) calf serum (CS). Jurkat cells were cultured in RPMI 1640 (GIBCO BRL) containing 10% (v/v) FBS. Human fibroblasts were isolated from neonatal foreskin tissue and prepared as follows. Rinsed, fresh tissue was exposed to 25 units/ml dispase (Collaborative Research, Bedford, Mass.) overnight at 4° C., separated into epidermis and dermis, and the minced dermis was digested 10 min at 37° C. in 0.25% (v/v) trypsin, 1 mM EDTA. The reaction was stopped by a rinse and centrifugation in DMEM with 10% (v/v) FBS, in which the cells were also cultured. All cultures were incubated at 37° C., 5% CO2. Media for all cultures routinely included 100 units/ml penicillin and 100 μg/ml streptomycin.
For transfection of Jurkat cells in suspension, lipid and DNA (pCMVCAT) were diluted separately into 500 μl aliquots of Opti-MEM I Reduced Serum Medium (GIBCO BRL; serum-free). These aliquots were gently mixed and incubated at room temperature for 15-45 minutes to form lipid-DNA complexes. […]

## N,N,N′,N′-tetramethyltetrapalmyl-sperminetetrammonium iodide [Compound 3]
[1]; human fibroblasts, lower concentration of lipid required for optimal activity
  transfection efficiency relative to DOSPA: comparable to DOSPA
[1]; primary human fibroblast cells (Table 1)
  effectiveness for DNA transfection: highly effective
NIH-3T3 cells; NIH-3T3 cells (Table 2)
  effectiveness for DNA transfection: highly effective
NIH-3T3 cells; NIH-3T3 cells, low amounts of DNA
  transfection effectiveness relative to DOSPA: approximately 10 fold
CHO-K1 cells
  effectiveness for DNA transfection: highly effective
Jurkat cells; Jurkat cells (Table 4)
  effectiveness for DNA transfection: highly effective
Jurkat cells; Jurkat cells, lower concentration of lipid required for optimal activity
  transfection efficiency relative to DOSPA: comparable to DOSPA
